This passage reports TGI and GI50 results from PubChem BioAssay (NCI).

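48-hour exposure; five concentrations; linearly interpolated endpoints. At the GI50, growth is halved. TGI is the concentration that stops growth completely.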 Where a SMILES comes first, the peptide text is derived from it. [ ]: non-standard residue; d: D form. The star is where a group is joined. Bn2Val = CC(C)[C@@H](C(=O)*)N(Cc1ccccc1)Cc1ccccc1; NH(4-Cl-benzyl) = Clc1ccc(CN*)cc1; NMeV = CN[C@H](C(=O)O)C(C)C; dNMeA = CN[C@H](C)C(=O)O

Among the test systems are MDA-MB-435; OVCAR-8 ovarian; SK-MEL-28 melanoma; MCF7 breast; OVCAR-3 ovarian; SNB-19 CNS; HCC-2998 colon; A498 renal; A549 NSCLC; SK-OV-3 ovarian.
Test in all cases: DTP human tumour cell line panel, 48 h

Regarding `COc1ccc(Nc2ccc3ccccc3c2-c2c(O)ccc3ccccc23)cc1`, the TGI in the assay with MDA-MB-435 is 20.3 µM; in the assay with OVCAR-8 ovarian it was 33.6 µM; in the assay on SK-MEL-28 melanoma it was 31.7 µM; with MCF7 breast it was 25.6 µM; with OVCAR-3 ovarian, 27.7 µM; with SNB-19 CNS, 37.2 µM. In the assay on HCC-2998 colon, this compound had a TGI of 29.1 µM.

In the case of `COc1cccc(C=O)c1[O-].[O]=[U](=[O])([OH2+])[OH2+]`, the TGI is over 100 µM in the assay on A498 renal; over 100 µM in the assay with A549 NSCLC; 56.2 µM in the assay with OVCAR-8 ovarian; over 100 µM in the assay on SK-MEL-28 melanoma; 63.6 µM in the assay with SK-OV-3 ovarian; 49.4 µM with OVCAR-3 ovarian. Also, the concentration for total growth inhibition (TGI) in the assay on SNB-19 CNS was 45.5 µM; with HCC-2998 colon, over 100 µM.

`Cn1c(-c2ccc(/C=N/NC(=S)N/N=C/c3ccc(-c4c[n+]5ccsc5n4C)cc3)cc2)c[n+]2ccsc12`: the TGI with MDA-MB-435, in the assay with A549 NSCLC, in the assay with OVCAR-8 ovarian, in the assay with SK-MEL-28 melanoma, in the assay with SK-OV-3 ovarian and with MCF7 breast was over 100 µM throughout. Besides, the TGI with SNB-19 CNS and in the assay on HCC-2998 colon was over 100 µM each time.

With `NCc1cccc(O)c1O`, the TGI in the assay with A498 renal, in the assay on A549 NSCLC, with OVCAR-8 ovarian, with SK-MEL-28 melanoma, with SK-OV-3 ovarian and with OVCAR-3 ovarian was over 100 µM each time. For the same compound, the TGI in the assay with SNB-19 CNS was over 100 µM.

On to `c1ccc(/C(=N/Nc2ccncn2)c2ccccn2)cc1`, for which the TGI was over 100 µM with MDA-MB-435; over 100 µM with A549 NSCLC; 50.2 µM in the assay with OVCAR-8 ovarian; over 100 µM in the assay on SK-MEL-28 melanoma; 75.7 µM in the assay with SK-OV-3 ovarian; over 100 µM in the assay on MCF7 breast. The TGI is 32.5 µM in the assay on OVCAR-3 ovarian, over 100 µM with SNB-19 CNS and over 100 µM with HCC-2998 colon.

Turning to `CN(Cc1cnc2nc(N)nc(N)c2n1)c1ccc(C(=O)NC(CO)CCCO)cc1` (stereo not given), the TGI in the assay with MDA-MB-435, in the assay on A498 renal, in the assay on OVCAR-8 ovarian, in the assay with SK-MEL-28 melanoma, with SK-OV-3 ovarian and in the assay with MCF7 breast was over 100 µM in each case. For the same compound, the TGI in the assay with OVCAR-3 ovarian and in the assay on SNB-19 CNS was over 100 µM in each case.

As for `Cc1nn(-c2ccccc2)c(C)c1/C=N/N=C1\S/C(=C\c2ccc(Cl)cc2)C(=O)N1c1ccccc1`, the TGI in the assay with MDA-MB-435, in the assay with A498 renal, with A549 NSCLC, in the assay with OVCAR-8 ovarian, with SK-MEL-28 melanoma and with SK-OV-3 ovarian was over 100 µM in each case. Besides, the TGI with MCF7 breast, in the assay with OVCAR-3 ovarian and with SNB-19 CNS was over 100 µM throughout.

Regarding `CCN=C1C=CC(=C(c2ccc(N(CC)CC)cc2)c2ccc(N(CC)CC)cc2)c2ccccc21`, the GI50 in the assay with MDA-MB-435 was 0.0733 µM; in the assay with A498 renal, 0.0692 µM; in the assay with SK-OV-3 ovarian, 82.3 nM; in the assay on SNB-19 CNS, 50.4 nM. In addition, the TGI was found to be 0.428 µM in the assay on MDA-MB-435, 0.444 µM in the assay on A498 renal, 0.601 µM in the assay on SK-OV-3 ovarian and 1.47 µM in the assay with SNB-19 CNS.

For the compound `COC[C@@H](N=Cc1ccc([N+](=O)[O-])cc1)C(C)C`, the TGI in the assay on MDA-MB-435, in the assay with A549 NSCLC, with OVCAR-8 ovarian, with SK-MEL-28 melanoma, in the assay on SK-OV-3 ovarian and with MCF7 breast was over 100 µM in each case. The compound further gave a TGI with SNB-19 CNS of over 100 µM.

`Cc1nnc2n1N=C(c1ccc(Cl)cc1Cl)/C(=C/c1ccc(-c3ccc([N+](=O)[O-])cc3Cl)o1)S2`: the GI50 in the assay on MDA-MB-435 is 13.5 µM; in the assay with A498 renal it was 31.7 µM; with A549 NSCLC, 31.7 µM; in the assay with OVCAR-8 ovarian it was 18.1 µM; in the assay with SK-MEL-28 melanoma, 57.3 µM; with SK-OV-3 ovarian, over 100000 nM. Besides, the GI50 with MCF7 breast is 2060 nM; in the assay on OVCAR-3 ovarian, 14.4 µM; in the assay with SNB-19 CNS it was over 100000 nM. The TGI with MDA-MB-435 was 29 µM; in the assay with A498 renal it was 95.8 µM; in the assay on A549 NSCLC, over 100 µM; in the assay with OVCAR-8 ovarian it was 41.5 µM; with SK-MEL-28 melanoma, over 100 µM; in the assay with SK-OV-3 ovarian it was over 100 µM. The values for the TGI with MCF7 breast, in the assay with OVCAR-3 ovarian and with SNB-19 CNS were 14.3 µM, 34 µM and over 100 µM, respectively.

Regarding `C=CCC1C(O[Si](C)(C)C(C)(C)C)C(CO[Si](C)(C)C(C)(C)C)OC1n1ccc(=O)[nH]c1=O` (stereo not given), the TGI was found to be 4.33 µM in the assay with MDA-MB-435; 3.68 µM in the assay with A498 renal; 2.91 µM with A549 NSCLC; 3.41 µM with OVCAR-8 ovarian; 3.05 µM in the assay with SK-MEL-28 melanoma; 3.34 µM in the assay on OVCAR-3 ovarian. Besides, the results for the TGI with SNB-19 CNS and in the assay with HCC-2998 colon were 3.06 µM and 3.27 µM, respectively.

Regarding `Cc1cc(OC(=O)NCn2cc(-c3ccccc3)nn2)ccc1Cl`, the TGI was over 100 µM in the assay on A549 NSCLC; over 100 µM in the assay with OVCAR-8 ovarian; over 100 µM with SK-MEL-28 melanoma; over 100 µM with MCF7 breast; over 100 µM with SNB-19 CNS; 39.2 µM in the assay on HCC-2998 colon.

On to `CCOC(=O)Nn1c(CC#N)nnc1Cc1ccccc1`, for which the TGI in the assay with MDA-MB-435, in the assay on A549 NSCLC, in the assay with OVCAR-8 ovarian, in the assay on SK-MEL-28 melanoma, with MCF7 breast and with OVCAR-3 ovarian was over 100 µM each time. The total growth inhibition concentration (TGI) with SNB-19 CNS and with HCC-2998 colon was over 100 µM each time.

For the compound `COc1cc(C2C3=C(COC3=O)Oc3cc4c(cc32)OCO4)cc(OC)c1O` (stereo not given), the TGI with A498 renal was 6.75 µM; with A549 NSCLC, over 60.6 µM; with OVCAR-8 ovarian, 1.05 µM; with SK-MEL-28 melanoma, 89.8 µM; with SK-OV-3 ovarian it was 1.48 µM; in the assay with MCF7 breast, over 48.2 µM. In addition, the TGI was 19.8 µM in the assay on OVCAR-3 ovarian, 27.6 µM in the assay with SNB-19 CNS and 0.121 µM in the assay with HCC-2998 colon.

For the compound `CC(C)[C@H](NC(=O)[C@H](C(C)C)N(Cc1ccccc1)Cc1ccccc1)C(=O)N(C)[C@H](C(=O)N1CCC[C@H]1C(=O)N(C)[C@H](C)C(=O)NCc1ccc(Cl)cc1)C(C)C` (Bn2Val-V[NMeV]P[dNMeA]-{NH(4-Cl-benzyl)}), the TGI in the assay with MDA-MB-435 was 79.8 µM; with A549 NSCLC, over 100 µM; with OVCAR-8 ovarian, over 100 µM; with SK-MEL-28 melanoma it was 36.3 µM; in the assay on SK-OV-3 ovarian, over 100 µM; with OVCAR-3 ovarian, 9.67 µM. This compound registered a TGI with SNB-19 CNS of over 100 µM.

For the compound `O=C1C=CC(=O)c2c(O)c(NCCOCCO)c(Cl)c(O)c21`, the results for the TGI in the assay with A549 NSCLC, with OVCAR-8 ovarian and in the assay on SK-OV-3 ovarian were 19.1 µM, 20.4 µM and 31.1 µM, respectively.
